Test results taken from patent US11117892B2, “Pyrrolo-pyridine derivative compound, method for preparing same, and pharmaceutical composition containing same as active ingredient for prevention or treatment of protein kinase-related diseases” (DAEGU-GYEONGBUK MEDICAL INNOVATION FOUNDATION, priority 2017, dated 2021).

Tests used:
Experiment in all cases: scanMAX Kinase assay panel
Assay type in all cases: binding
Details in all cases: read-out: % control
LTK = LTK (Homo sapiens (Human), UniProt P29376)
Procedure, shortened: (§1)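 scanMAX kinase panel screen. Normalisation: (cpd − pos ctrl)/(neg ctrl − pos ctrl) × 100. Neg ctrl is DMSO (100%); pos ctrl gives 0%.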

STK35 = STK35 (Homo sapiens (Human), UniProt Q8TDR2)
Chain of STK35 (Q8TDR2 whole entry): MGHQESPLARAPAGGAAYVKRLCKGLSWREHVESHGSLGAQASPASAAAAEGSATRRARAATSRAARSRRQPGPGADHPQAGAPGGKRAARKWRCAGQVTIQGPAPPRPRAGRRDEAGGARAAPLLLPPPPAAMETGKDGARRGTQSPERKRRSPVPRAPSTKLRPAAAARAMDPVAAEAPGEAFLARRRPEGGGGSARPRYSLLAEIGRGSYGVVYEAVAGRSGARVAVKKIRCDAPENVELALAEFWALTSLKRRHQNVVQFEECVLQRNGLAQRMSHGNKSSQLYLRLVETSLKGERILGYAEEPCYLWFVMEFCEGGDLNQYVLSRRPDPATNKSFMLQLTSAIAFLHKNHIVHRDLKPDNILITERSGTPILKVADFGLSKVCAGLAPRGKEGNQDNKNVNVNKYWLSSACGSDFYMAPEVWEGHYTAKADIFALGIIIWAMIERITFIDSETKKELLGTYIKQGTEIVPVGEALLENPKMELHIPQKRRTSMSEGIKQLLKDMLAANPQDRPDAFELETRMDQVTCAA
Procedure, shortened: as §1

MARK2 = MARK2 (Homo sapiens (Human), UniProt Q7KZI7)
Procedure, shortened: as §1

CDK4 = CDK4 (Homo sapiens (Human), UniProt P11802)
Procedure, shortened: as §1

PRKX = PRKX (Homo sapiens (Human), UniProt P51817)
Procedure, shortened: as §1

PAK7 = PAK7 (Homo sapiens (Human), UniProt Q9P286)
Procedure, shortened: as §1

RET(M918T) = RET(M918T) (Homo sapiens (Human), UniProt P07949, M918T)
Chain of RET(M918T) (P07949 29-1114 M918T): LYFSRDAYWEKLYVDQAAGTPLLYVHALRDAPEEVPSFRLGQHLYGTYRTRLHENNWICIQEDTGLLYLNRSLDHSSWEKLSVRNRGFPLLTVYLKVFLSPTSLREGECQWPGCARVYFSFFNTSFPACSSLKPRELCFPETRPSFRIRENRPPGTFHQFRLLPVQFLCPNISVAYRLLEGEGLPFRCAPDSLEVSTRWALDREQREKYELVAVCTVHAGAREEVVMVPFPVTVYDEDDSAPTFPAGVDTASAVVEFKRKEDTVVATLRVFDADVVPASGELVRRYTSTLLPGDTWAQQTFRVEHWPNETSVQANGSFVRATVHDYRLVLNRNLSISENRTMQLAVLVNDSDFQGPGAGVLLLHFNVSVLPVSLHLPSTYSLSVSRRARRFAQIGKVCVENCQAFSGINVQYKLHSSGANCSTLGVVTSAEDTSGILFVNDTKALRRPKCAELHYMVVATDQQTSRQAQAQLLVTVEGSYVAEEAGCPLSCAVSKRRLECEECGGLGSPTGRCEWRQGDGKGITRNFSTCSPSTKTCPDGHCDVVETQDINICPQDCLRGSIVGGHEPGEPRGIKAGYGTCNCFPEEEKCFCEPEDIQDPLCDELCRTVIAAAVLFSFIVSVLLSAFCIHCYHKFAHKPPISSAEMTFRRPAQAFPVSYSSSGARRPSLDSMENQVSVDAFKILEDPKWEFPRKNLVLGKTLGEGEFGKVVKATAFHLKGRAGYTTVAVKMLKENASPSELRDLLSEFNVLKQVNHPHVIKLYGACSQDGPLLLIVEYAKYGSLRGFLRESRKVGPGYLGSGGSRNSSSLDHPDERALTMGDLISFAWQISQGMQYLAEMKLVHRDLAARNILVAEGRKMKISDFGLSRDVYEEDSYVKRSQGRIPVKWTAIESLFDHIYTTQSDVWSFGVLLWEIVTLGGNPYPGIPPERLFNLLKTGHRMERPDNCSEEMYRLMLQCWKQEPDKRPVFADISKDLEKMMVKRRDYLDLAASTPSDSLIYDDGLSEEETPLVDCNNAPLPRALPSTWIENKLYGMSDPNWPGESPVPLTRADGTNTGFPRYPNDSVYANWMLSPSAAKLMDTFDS
Procedure, shortened: as §1

AMPK-alpha2 = AMPK-alpha2 (Homo sapiens (Human), UniProt P54646)
Procedure, shortened: as §1

TYRO3 = TYRO3 (Homo sapiens (Human), UniProt Q06418)
Procedure, shortened: as §1

BMPR2 = BMPR2 (Homo sapiens (Human), UniProt Q13873)
Procedure, shortened: as §1

CASK = CASK (Homo sapiens (Human), UniProt O14936)
Procedure, shortened: as §1

DAPK1 = DAPK1 (Homo sapiens (Human), UniProt P53355)
Procedure, shortened: as §1

MELK = MELK (Homo sapiens (Human), UniProt Q14680)
Procedure, shortened: as §1

EPHA2 = EPHA2 (Homo sapiens (Human), UniProt P29317)
Procedure, shortened: as §1

MET = MET (Homo sapiens (Human), UniProt P08581)
Procedure, shortened: as §1

[1] = molecular target: TYK2(JH2domain-pseudokinase) (Homo sapiens (Human), UniProt P29597)
Procedure, shortened: as §1

TGFBR2 = TGFBR2 (Homo sapiens (Human), UniProt P37173)
Procedure, shortened: as §1

ZAK = ZAK (Homo sapiens (Human), UniProt Q9NYL2)
Procedure, shortened: as §1

SLK = SLK (Homo sapiens (Human), UniProt Q9H2G2)
Procedure, shortened: as §1

PDGFRB = PDGFRB (Homo sapiens (Human), UniProt P09619)
Procedure, shortened: as §1

CHEK2 = CHEK2 (Homo sapiens (Human), UniProt O96017)
Chain of CHEK2 (O96017 whole entry): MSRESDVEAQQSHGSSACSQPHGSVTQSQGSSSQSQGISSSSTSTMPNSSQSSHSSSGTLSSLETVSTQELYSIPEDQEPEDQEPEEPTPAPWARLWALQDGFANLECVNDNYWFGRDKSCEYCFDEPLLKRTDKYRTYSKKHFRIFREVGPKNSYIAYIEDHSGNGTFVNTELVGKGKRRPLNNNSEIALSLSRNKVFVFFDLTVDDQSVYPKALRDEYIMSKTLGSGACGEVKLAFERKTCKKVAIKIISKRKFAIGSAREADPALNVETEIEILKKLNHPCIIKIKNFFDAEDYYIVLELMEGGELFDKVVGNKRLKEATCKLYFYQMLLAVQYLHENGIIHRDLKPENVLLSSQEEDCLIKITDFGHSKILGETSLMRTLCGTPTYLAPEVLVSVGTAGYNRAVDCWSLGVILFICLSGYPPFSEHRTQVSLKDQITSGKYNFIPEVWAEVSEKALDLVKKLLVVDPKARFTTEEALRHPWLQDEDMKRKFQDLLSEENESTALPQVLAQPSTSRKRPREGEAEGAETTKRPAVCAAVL
Procedure, shortened: as §1

TAOK1 = TAOK1 (Homo sapiens (Human), UniProt Q7L7X3)
Procedure, shortened: as §1

ABL1-nonphosphorylated = ABL1-nonphosphorylated (Homo sapiens (Human), UniProt P00519)
Procedure, shortened: as §1

MARK3 = MARK3 (Homo sapiens (Human), UniProt P27448)
Procedure, shortened: as §1

ITK = ITK (Homo sapiens (Human), UniProt Q08881)
Procedure, shortened: as §1

KIT-autoinhibited = KIT-autoinhibited (Homo sapiens (Human), UniProt P10721)
Procedure, shortened: as §1

EGFR(G719S) = EGFR(G719S) (Homo sapiens (Human), UniProt P00533, G719S)
Procedure, shortened: as §1

MST3 = MST3 (Homo sapiens (Human), UniProt Q9Y6E0)
Procedure, shortened: as §1

SGK2 = SGK2 (Homo sapiens (Human), UniProt Q9HBY8)
Procedure, shortened: as §1

QSK = QSK (Homo sapiens (Human), UniProt Q9Y2K2)
Chain of QSK (Q9Y2K2 whole entry): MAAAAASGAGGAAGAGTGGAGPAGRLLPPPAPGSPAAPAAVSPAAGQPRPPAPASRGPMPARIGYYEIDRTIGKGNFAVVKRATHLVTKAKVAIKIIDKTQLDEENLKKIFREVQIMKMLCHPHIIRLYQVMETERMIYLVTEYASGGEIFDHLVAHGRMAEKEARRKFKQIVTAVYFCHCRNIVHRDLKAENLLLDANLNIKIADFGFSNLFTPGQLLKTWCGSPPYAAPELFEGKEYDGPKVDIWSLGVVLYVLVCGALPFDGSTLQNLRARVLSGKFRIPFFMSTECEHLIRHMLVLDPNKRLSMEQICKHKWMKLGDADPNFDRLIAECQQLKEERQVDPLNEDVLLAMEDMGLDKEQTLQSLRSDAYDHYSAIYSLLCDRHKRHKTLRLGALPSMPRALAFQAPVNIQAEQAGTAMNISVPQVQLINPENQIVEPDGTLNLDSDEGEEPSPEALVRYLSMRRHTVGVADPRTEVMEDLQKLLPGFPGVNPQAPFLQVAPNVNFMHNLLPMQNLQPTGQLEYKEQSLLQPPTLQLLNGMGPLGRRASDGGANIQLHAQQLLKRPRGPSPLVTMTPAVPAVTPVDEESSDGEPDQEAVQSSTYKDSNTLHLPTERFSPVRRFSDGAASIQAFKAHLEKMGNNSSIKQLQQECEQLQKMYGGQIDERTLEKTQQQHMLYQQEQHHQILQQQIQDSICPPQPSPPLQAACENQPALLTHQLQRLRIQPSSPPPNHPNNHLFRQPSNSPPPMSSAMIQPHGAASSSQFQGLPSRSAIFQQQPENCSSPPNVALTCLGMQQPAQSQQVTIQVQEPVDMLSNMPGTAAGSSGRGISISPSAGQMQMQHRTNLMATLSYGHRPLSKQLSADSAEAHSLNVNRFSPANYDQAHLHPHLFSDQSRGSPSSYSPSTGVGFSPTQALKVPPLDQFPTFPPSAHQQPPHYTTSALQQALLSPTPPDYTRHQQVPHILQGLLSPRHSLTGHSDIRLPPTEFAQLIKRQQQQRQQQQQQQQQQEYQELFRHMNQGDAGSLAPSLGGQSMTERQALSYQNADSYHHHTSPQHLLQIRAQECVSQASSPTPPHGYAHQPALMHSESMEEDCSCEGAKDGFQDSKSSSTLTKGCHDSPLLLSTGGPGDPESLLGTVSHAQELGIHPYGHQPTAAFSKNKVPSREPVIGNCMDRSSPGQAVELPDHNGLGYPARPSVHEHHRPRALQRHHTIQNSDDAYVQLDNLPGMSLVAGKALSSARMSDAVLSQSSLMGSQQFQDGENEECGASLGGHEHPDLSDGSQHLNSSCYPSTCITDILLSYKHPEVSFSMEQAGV
Procedure, shortened: as §1

MYO3A = MYO3A (Homo sapiens (Human), UniProt Q8NEV4)
Procedure, shortened: as §1

RIOK3 = RIOK3 (Homo sapiens (Human), UniProt O14730)
Procedure, shortened: as §1

PCTK2 = PCTK2 (Homo sapiens (Human), UniProt Q00537)
Procedure, shortened: as §1

MLCK = MLCK (Homo sapiens (Human), UniProt Q32MK0)
Chain of MLCK (Q32MK0 whole entry): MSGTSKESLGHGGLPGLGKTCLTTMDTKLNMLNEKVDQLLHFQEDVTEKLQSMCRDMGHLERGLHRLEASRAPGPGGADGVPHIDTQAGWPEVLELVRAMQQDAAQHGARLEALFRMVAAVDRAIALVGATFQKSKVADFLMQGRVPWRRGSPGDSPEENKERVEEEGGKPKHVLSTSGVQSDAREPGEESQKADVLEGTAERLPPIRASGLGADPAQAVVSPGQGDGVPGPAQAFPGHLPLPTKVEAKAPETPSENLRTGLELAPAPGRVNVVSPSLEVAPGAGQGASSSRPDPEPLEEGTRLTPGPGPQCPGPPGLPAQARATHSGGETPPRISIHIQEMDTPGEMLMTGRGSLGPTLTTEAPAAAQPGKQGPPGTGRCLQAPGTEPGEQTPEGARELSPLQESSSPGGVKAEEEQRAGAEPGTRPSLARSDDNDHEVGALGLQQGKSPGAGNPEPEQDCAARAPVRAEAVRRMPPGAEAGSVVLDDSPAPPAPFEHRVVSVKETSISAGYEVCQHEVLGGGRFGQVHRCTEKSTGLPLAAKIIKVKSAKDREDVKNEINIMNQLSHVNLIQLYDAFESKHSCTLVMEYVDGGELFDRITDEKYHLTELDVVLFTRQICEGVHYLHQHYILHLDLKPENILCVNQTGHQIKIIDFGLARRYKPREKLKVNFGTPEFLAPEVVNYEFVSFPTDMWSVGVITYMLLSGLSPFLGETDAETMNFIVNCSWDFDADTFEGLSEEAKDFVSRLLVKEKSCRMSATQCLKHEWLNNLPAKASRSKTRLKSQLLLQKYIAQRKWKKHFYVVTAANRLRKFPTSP
Procedure, shortened: as §1

ALK(C1156Y) = ALK(C1156Y) (Homo sapiens (Human), UniProt Q9UM73, C1156Y)
Procedure, shortened: as §1

[2] = molecular target: ABL1(T315I)-phosphorylated (Homo sapiens (Human), UniProt P00519, T315I)
Procedure, shortened: as §1

CIT = CIT (Homo sapiens (Human), UniProt O14578)
Procedure, shortened: as §1

MINK = MINK (Homo sapiens (Human), UniProt Q8N4C8)
Procedure, shortened: as §1

MARK4 = MARK4 (Homo sapiens (Human), UniProt Q96L34)
Chain of MARK4 (Q96L34 whole entry): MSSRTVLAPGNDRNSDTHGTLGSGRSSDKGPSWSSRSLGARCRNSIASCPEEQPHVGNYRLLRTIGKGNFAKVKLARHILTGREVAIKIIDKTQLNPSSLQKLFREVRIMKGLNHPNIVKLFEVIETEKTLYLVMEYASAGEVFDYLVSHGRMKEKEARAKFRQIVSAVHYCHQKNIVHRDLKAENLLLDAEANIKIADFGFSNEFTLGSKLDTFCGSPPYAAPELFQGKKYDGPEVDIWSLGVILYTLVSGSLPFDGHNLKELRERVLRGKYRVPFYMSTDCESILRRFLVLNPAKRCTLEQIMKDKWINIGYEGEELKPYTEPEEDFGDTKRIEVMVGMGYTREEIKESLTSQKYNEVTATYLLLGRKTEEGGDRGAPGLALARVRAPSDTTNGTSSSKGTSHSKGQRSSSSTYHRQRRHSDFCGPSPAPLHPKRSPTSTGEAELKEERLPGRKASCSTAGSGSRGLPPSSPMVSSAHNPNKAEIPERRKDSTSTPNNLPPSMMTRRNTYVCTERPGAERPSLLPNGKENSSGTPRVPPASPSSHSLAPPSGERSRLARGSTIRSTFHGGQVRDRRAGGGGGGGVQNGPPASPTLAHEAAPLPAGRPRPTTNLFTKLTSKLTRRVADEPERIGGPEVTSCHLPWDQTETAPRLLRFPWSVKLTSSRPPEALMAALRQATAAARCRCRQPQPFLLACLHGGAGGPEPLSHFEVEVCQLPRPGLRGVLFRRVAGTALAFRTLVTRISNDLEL
Procedure, shortened: as §1

| SMILES | remaining binding at 1 µM (LTK) | remaining binding at 1 µM (STK35) | remaining binding at 1 µM (MARK2) | remaining binding at 1 µM (CDK4) | remaining binding at 1 µM (PRKX) | remaining binding at 1 µM (PAK7) | remaining binding at 1 µM (RET(M918T)) | remaining binding at 1 µM (AMPK-alpha2) | remaining binding at 1 µM (TYRO3) | remaining binding at 1 µM (BMPR2) | remaining binding at 1 µM (CASK) | remaining binding at 1 µM (DAPK1) | remaining binding at 1 µM (MELK) | remaining binding at 1 µM (EPHA2) | remaining binding at 1 µM (MET) | remaining binding at 1 µM [1] | remaining binding at 1 µM (TGFBR2) | remaining binding at 1 µM (ZAK) | remaining binding at 1 µM (SLK) | remaining binding at 1 µM (PDGFRB) | also measured |
| --- | --- | --- | --- | --- | --- | --- | --- | --- | --- | --- | --- | --- | --- | --- | --- | --- | --- | --- | --- | --- | --- |
| CCNc1cc(Nc2ccc(C(=O)N3CCC(N4CCOCC4)CC3)cc2OC)nc2[nH]cc(C#N)c12 [Example 18, 4-(ethylamino)-6-((2-methoxy-4-(4-morpholinopiperidine-1-carbonyl)phenyl)amino)-1H-pyrrolo[2,3-b]pyridine-3-carbonitrile] | 6.2% | 85% | 89% | 100% | 92% | 80% | 99% | 100% | 80% | 44% | 76% | 16% | 62% | 97% | 100% | 67% | 100% | 96% | 95% | 76% | remaining binding at 1 µM (CHEK2): 4.1%; remaining binding at 1 µM (TAOK1): 82%; remaining binding at 1 µM (ABL1-nonphosphorylated): 97%; remaining binding at 1 µM (MARK3): 100%; remaining binding at 1 µM (ITK): 87%; remaining binding at 1 µM (KIT-autoinhibited): 66%; remaining binding at 1 µM (EGFR(G719S)): 80%; remaining binding at 1 µM (MST3): 88%; remaining binding at 1 µM (SGK2): 64%; remaining binding at 1 µM (QSK): 92%; remaining binding at 1 µM (MYO3A): 71%; remaining binding at 1 µM (RIOK3): 98%; remaining binding at 1 µM (PCTK2): 100%; remaining binding at 1 µM (MLCK): 87%; remaining binding at 1 µM (ALK(C1156Y)): 2.4%; remaining binding at 1 µM [2]: 100%; remaining binding at 1 µM (CIT): 71%; remaining binding at 1 µM (MINK): 55%; remaining binding at 1 µM (MARK4): 80% |
| CCNc1cc(Nc2ccc(C(=O)N3CCC(N4CCOCC4)CC3)cc2OC)nc2[nH]cc(C(F)(F)F)c12 [Example 57, (4-((4-(ethylamino)-3-(trifluoromethyl)-1H-pyrrolo[2,3-b]pyridin-6-yl)amino)-3-methoxyphenyl) (4-morpholinopiperidin-1-yl)methanone] | 20% | 98% | 93% | 100% | 80% | 100% | 100% | 98% | 96% | 84% | 88% | 70% | 69% | 83% | 100% | 100% | 97% | 87% | 80% | 92% | remaining binding at 1 µM (CHEK2): 47%; remaining binding at 1 µM (TAOK1): 100%; remaining binding at 1 µM (ABL1-nonphosphorylated): 51%; remaining binding at 1 µM (MARK3): 92%; remaining binding at 1 µM (ITK): 97%; remaining binding at 1 µM (KIT-autoinhibited): 100%; remaining binding at 1 µM (EGFR(G719S)): 92%; remaining binding at 1 µM (MST3): 84%; remaining binding at 1 µM (SGK2): 100%; remaining binding at 1 µM (QSK): 87%; remaining binding at 1 µM (MYO3A): 70%; remaining binding at 1 µM (RIOK3): 96%; remaining binding at 1 µM (PCTK2): 98%; remaining binding at 1 µM (MLCK): 78%; remaining binding at 1 µM (ALK(C1156Y)): 3.5%; remaining binding at 1 µM [2]: 96%; remaining binding at 1 µM (CIT): 66%; remaining binding at 1 µM (MINK): 100%; remaining binding at 1 µM (MARK4): 76% |
